Entries after “also recorded” stand apart in the source; their conditions may differ.
Key:
[1] = test system: soybeans; assay: Germination assay, soybeans coated with compound; assay type: in vivo, soybean; details: beans coated in 1% weight compound/weight bean
Description: Soybeans were susceptible to Aphis glycines infestation and were not determined to be a biotype that was resistant to infestation, which could confide results. Germination typically occurred between 3-5 days after moistening.

[2] = test system: Soybean plants; assay: Soil drench assay, soybean plants; assay type: in vivo; design: key: NOE: No Observable Effect; XXX: Dead; -: the lowest phytotoxic effect; --: phytotoxicity that did not result in death; ---: phytotoxicity that did not result in death; ------: the highest; details: 3-weeks after treatment, Old Plants, 7%, 40 mL
[3] = test system: corn seeds; assay: Germination assay, corn seeds coated with compound; details: for inhibition of corn seed germination: seed coating 1% weight compound/weight seed, 3, 5, 7 days
[4] = test system: Corn plants; assay: Soil drench assay, corn plants; assay type: in vivo; design: key to phytotoxicity (qualitative), soil drench: NOE: No Observable Effect; XXX: Dead; -: the lowest phytotoxic effect; --: phytotoxicity that did not result in death; ---: phytotoxicity that did not result in death; ------: the highest; details: for overall phytotoxicity to corn plants, soil drench: 0.5%-1% formulations; for phytotoxicity (qualitative), soil drench: Corn, 40 mL
Method: Corn plants were planted under ½″ of potting soil and watered every 2-3 days as necessary. Plants were grown in potting plants (6″ wide×4.5″ deep) with approximately 800 mL of soil for each plant. Seeds germinated approximately 4-7 days after being planted. Plants were grown in a greenhouse under a constant temperature and light environment (25±5° C., 12 hr: 12 hr light: dark cycle). Plants were grown until reaching 1-2 weeks old and 3-4 weeks old; these plants served as the “young” and “old” plants in this study, respectively. Formulations of the various active ingredients were created using the monoterpenoid derivatives, potassium hydroxide, and Triton-X 100™ to aid in the solvation of the active ingredient. […] Formulations were applied to the soil next to the base of the stem of the plant to avoid foliar contact. Observations were performed 2 days and 3 weeks after soil drench to determine the effects of the treatments on the various types and stages of plants.

[5] = test system: Soybean plants; assay: Soil drench assay, soybean plants; assay type: in vivo; design: key to phytotoxicity (qualitative), soil drench: NOE: No Observable Effect; XXX: Dead; -: the lowest phytotoxic effect; --: phytotoxicity that did not result in death; ---: phytotoxicity that did not result in death; ------: the highest; details: for overall phytotoxicity to soybean plants, soil drench: 0.5%-1% formulations; for phytotoxicity (qualitative), soil drench: Soybean, 40 mL
Method: Soybean plants were planted under 1 cm of potting soil and watered every 2-3 days as necessary. Plants were grown in pots (6″ wide×4.5″ deep) with approximately 800 mL of soil for each plant. Seeds germinated approximately 3-5 days after being planted. Plants were grown in a greenhouse under a constant temperature and light environment (25±5° C., 12 hr: 12 hr light: dark cycle). Plants were grown until reaching 1-2 weeks old and 3-4 weeks old; these plants served as the “young” and “old” plants in this study, respectively.
Formulations of the various active ingredients were created using the monoterpenoid derivatives, potassium hydroxide, and Triton-X 100™ to aid in the solvation of the active ingredient. Formulations consisted of 0.5%-1% active ingredient by weight (0.5-1 g/100 ml water), with a 1:1 molar ratio of potassium hydroxide used to aid in the solvation (135-269 mg/100 mL for both thymyloxyacetic acid and carvacryloxyacetic acid). […] Formulations were applied to the soil next to the base of the stem of the plant to avoid foliar contact. Observations were performed 2 days and 3 weeks after soil drench to determine the effects of the treatments on the various types and stages of plants.

[6] = test system: various dicot weed species; assay: Selectivity assessment, dicot weed species compared to bluegrass; assay type: in vivo; details: range over various weed species
Description: (§1) Kentucky bluegrass seeds were purchased in a bag under the commercial name of. Individual seeds were sown for each pot (1.5″ wide×3″ deep) with approximately 7.5 g of soil for each plot. 10 seeds/plot was sown into numerous plots. After one month of germination, germinated plants were counted in each plot and this number was used for the total number of plants challenged per plot in the toxicity assessment.
The total number of plants were counted in each plot in 24×6 hexagonal small plot planter tray. The number of germinated seeds in each plot was enumerated after one month, and for each plot this number was recorded and used as the total for each plot. Differing concentrations of thymyloxyacetic acid was applied in 5% Triton-X 100 and 1:1 molar ratio potassium hydroxide:thymyloxyacetic acid to aid in the solubility of the compound in water. Ten mL of solution was applied to each plot, and the mortality of the plants was assessed at 3 days and 2 weeks post application (for some treatments). Mortality at these time points were enumerated out of the total plants germinated in each plot at the beginning of the assay. At both time points, the total number of dead plants and total number of plants at the beginning of the assay were recorded for each observation. A Probit model was used to calculate the LC50 values for each of the compounds explored in this assay. […]

[7] = test system: Cocklebur (Xanthium spp.); assay: Toxicity assay (probit LC50), cocklebur; assay type: in vivo
Description: as §1, with “Cocklebur burs” for “Kentucky bluegrass seeds”, “obtained from” for “purchased in a bag under”, “Department of Agronomy at Iowa State University.” for “commercial name of.”, “One bur/plot” for “10 seeds/plot”
(§2) The total number of plants were counted in each plot in 24×6 hexagonal small plot planter tray. The number of germinated seeds in each plot was enumerated after one month, and for each plot this number was recorded and used as the total for each plot. Differing concentrations of thymyloxyacetic acid was applied in 5% Triton-X 100 and 1:1 molar ratio potassium hydroxide:thymyloxyacetic acid to aid in the solubility of the compound in water. Ten mL of solution was applied to each plot, and the mortality of the plants was assessed at 3 days and 2 weeks post application (for some treatments). Mortality at these time points were enumerated out of the total plants germinated in each plot at the beginning of the assay. At both time points, the total number of dead plants and total number of plants at the beginning of the assay were recorded for each observation. A Probit model was used to calculate the LC50 values for each of the compounds explored in this assay. A formulation control (with no active ingredient) was screened against a number of plants and factored into the final probit model. This formulation control had little-to-no effect by itself.

[8] = test system: Palmer Amaranth (Amaranthus palmeri); assay: Toxicity assay (probit LC50), Palmer amaranth; assay type: in vivo
Description: (§3) Palmer amaranth seeds were obtained from the Department of Agronomy at Iowa State University. Individual seeds were sown for each pot (1.5″ wide×3″ deep) with approximately 7.5 g of soil for each plot. Five seeds/plot were sown into numerous plots. After one month of germination, germinated plants were counted in each plot and this number was used for the total number of plants challenged per plot in the toxicity assessment
as §2

[9] = test system: Wood sorrel; assay: Foliar spray, wood sorrel; assay type: in vivo; details: 20 sprays of 1%, observed 2 days after exposure and later
Method: Wood sorrel on the ground of the greenhouse was also treated with active ingredient in order to better assess the effects of foliar treatments on multiple plant species. A patch of wood sorrel was (approximately 4′×3′) was treated with 20 sprays (mist setting) from a MAINStays ironing spray bottle. Effects of the spray were recorded 2 days after exposure.

[10] = test system: Waterhemp (Amaranthus tuberculatus); assay: Toxicity assay (probit LC50), waterhemp; assay type: in vivo
Description: as §3, with “Waterhemp seeds” for “Palmer amaranth seeds”, “seeds/plot was” for “seeds/plot were”, “toxicity assessment.” for “toxicity assessment”
as §2

[11] = 2-days after treatment, Old Plants, 0.50%
[12] = 2-days after treatment, Old Plants, 1%
[13] = 2-days after treatment, Young Plants, 0.50%
[14] = 2-days after treatment, Young Plants, 1%
[15] = 3-weeks after treatment, Old Plants, 0.50%
[16] = 3-weeks after treatment, Old Plants, 1%
[17] = 3-weeks after treatment, Young Plants, 0.50%
[18] = 3-weeks after treatment, Young Plants, 1%

SMILES | inhibition of soybean germination/growth (words) [1] | phytotoxicity (qualitative), soil drench [2] | inhibition of corn seed germination [3] | overall phytotoxicity to corn plants, soil drench [4] | phytotoxicity (qualitative), soil drench [4, 11] | phytotoxicity (qualitative), soil drench [4, 12] | phytotoxicity (qualitative), soil drench [4, 13] | phytotoxicity (qualitative), soil drench [4, 14] | phytotoxicity (qualitative), soil drench [4, 15] | phytotoxicity (qualitative), soil drench [4, 16] | phytotoxicity (qualitative), soil drench [4, 17] | phytotoxicity (qualitative), soil drench [4, 18] | overall phytotoxicity to soybean plants, soil drench [5] | phytotoxicity (qualitative), soil drench [5, 11] | phytotoxicity (qualitative), soil drench [5, 12] | phytotoxicity (qualitative), soil drench [5, 13] | phytotoxicity (qualitative), soil drench [5, 14] | phytotoxicity (qualitative), soil drench [5, 15] | phytotoxicity (qualitative), soil drench [5, 17] | phytotoxicity (qualitative), soil drench [5, 18] | further results
COc1cc(C=O)ccc1OCC(=O)O [vanillyloxyacetic acid, 2-(4-formyl-2-methoxyphenoxy)acetic acid] | little to no inhibitory effect | NOE | significantly inhibited by all compounds screened except for | did not produce significant phytotoxic symptoms | NOE | NOE | NOE | NOE | NOE | NOE | NOE | NOE | did not cause phytotoxic effects | NOE | NOE | NOE | NOE | NOE | NOE | NOE | inhibition of soybean germination/growth (words) ([1]; listed as Vanillyloxyacetic acid): does not produce significant inhibition of plant growth
C=CCc1ccc(OCC(=O)OC)c(OC)c1 [eugenyloxyacetic acid methyl ester] |  |  | most capable of inhibiting the growth of corn seeds |  |  |  |  |  |  |  |  |  |  |  |  |  |  |  |  |  | 
C=CCc1ccc(OCC(=O)O)c(OC)c1 [eugenyloxyacetic acid, 2-(4-allyl-2-methoxyphenoxy)acetic acid] | prevented the growth of soybeans | - |  |  | NOE | - | NOE | NOE | - | -- | - | -- |  | - | - | - | -- | XXX | - | XXX | corn seed germination at day 3 ([3]; seed coating, day 3): some level of germination
COC(=O)COc1cc(C)ccc1C(C)C [thymyloxyacetate methyl ester] |  | XXX |  | most phytotoxic to corn | -- | -- | -- | -- | XXX | XXX | XXX | XXX | significantly inhibited the growth of soybeans | --- |  | --- |  | XXX | XXX | XXX | 
COc1cc(C(=O)O)ccc1OCC(=O)O [vanillic acid-oxyacetic acid, 4-(carboxymethoxy)-3-methoxybenzoic acid] |  | NOE | significantly inhibited by all compounds screened except for | did not produce significant phytotoxic symptoms | NOE | NOE | NOE | NOE | NOE | NOE | NOE | NOE | did not cause phytotoxic effects | NOE | NOE | NOE | NOE | NOE | NOE | NOE | 
O=C(O)COc1ccc(Cl)cc1Cl [2,4-D, 2,4-dichlorophenoxyacetic acid] |  |  |  |  |  |  |  |  |  |  |  |  |  |  |  |  |  |  |  |  | selectivity ratio compared to a blue grass species [6]: 2.56-5.97 fold; LC50 Value ([7]; Cocklebur): 770 ppm; Selective Toxicity Compared to Bluegrass ([7]; Cocklebur compared to bluegrass): 5.97; LC50 Value ([8]; Palmer Amaranth (Table 6)): 1300 ppm; Selective Toxicity Compared to Bluegrass ([8]; Palmer Amaranth compared to bluegrass): 3.54; LC50 Value ([8]; Palmer Amaranth, 2-week post application, probit): 465.04 ppm; LC50 Value ([8]; Palmer Amaranth, 3-day post application, probit): 1300 ppm; phytotoxicity compared with the other compound ([8]; Palmer amaranth, 95% confidence intervals overlapped): marginally more phytotoxic than thymyloxyacetic acid; LC50 at two weeks compared with three days after application (residual character in soil) ([8]; in vivo): significantly lower LC50 value; phytotoxic effect on wood sorrel, foliar spray [9]: took much longer to die; phytotoxic effect on wood sorrel, foliar spray ([9]; listed as 2,4-dichloroacetic acid): plant death was not observed until much later; also recorded: uncontrolled growth and some chlorosis; LC50 Value ([10]; Waterhemp): 1800 ppm; Selective Toxicity Compared to Bluegrass ([10]; Waterhemp compared to bluegrass): 2.56

From patent US12213479B2, “Monoterpenoid/phenylpropanoid-containing compounds and methods of their making and use as herbicides” (KITTRICH CORPORATION, priority 2016, dated 2025)
